Experimental data reported in US8952024B2, “Herbicidal pyrimidone derivatives” (E I du Pont de Nemours and Company, priority 2009, dated 2015).

Key:
Assay type in all cases: in vivo
[1] = tested on: bermudagrass (Cynodon dactylon); test: Test B pre-/postemergence plant response
Outline: (§1)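 Seeds sown in loam–sand blend were treated preemergence, and plants at 2–18 cm (1- to 4-leaf stage) in peat-based medium were treated postemergence; compounds were formulated in non-phytotoxic solvent with surfactant. After 13–15 days in greenhouse, response was visually rated against controls, 0 (no effect) to 100 (complete control).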

[2] = tested on: morningglory (Ipomoea coccinea); test: Test B pre-/postemergence plant response
Outline: as §1

[3] = tested on: canarygrass (Phalaris minor); test: Test B postemergence plant response
Outline: (§2)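 Plants grown in peat/vermiculite medium were sprayed postemergence at 2–18 cm height (1- to 4-leaf stage). After 13–15 days in the greenhouse, response was rated visually against untreated controls on a 0–100 scale (0 no effect, 100 complete control).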

[4] = tested on: chickweed (Stellaria media); test: Test B postemergence plant response
Outline: as §2

[5] = tested on: windgrass (Apera spica-venti); test: Test B postemergence plant response
Outline: as §2

[6] = tested on: winter barley (Hordeum vulgare); test: Test B postemergence plant response
Outline: as §2

[7] = tested on: barnyardgrass (Echinochloa crus-galli); test: Test B flooded paddy test; settings: for Plant response rating, Barnyardgrass: Flood (flooded paddy test), 13 to 15 days
Outline: (§3)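 Greenhouse-held for 13 to 15 days, treated pots were compared visually with controls and scored 0–100 (0, no effect). Treatment had been made into paddy water kept at 3 cm above the soil, with plants at the 2-leaf stage.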

[8] = tested on: ducksalad (Heteranthera limosa); test: Test B flooded paddy test; settings: for Plant response rating, Ducksalad: Flood (flooded paddy test), 13 to 15 days
Outline: as §3

[9] = tested on: rice (Oryza sativa); test: Test B flooded paddy test; settings: for Plant response rating, Rice: Flood (flooded paddy test), 13 to 15 days
Outline: as §3

[10] = tested on: umbrella sedge (Cyperus difformis); test: Test B flooded paddy test; settings: for Plant response rating, Sedge, Umbrella: Flood (flooded paddy test), 13 to 15 days
Outline: as §3

[11] = 31 g ai/ha, postemergence, scale 0 to 100, 0 is no effect, 100 is complete control
[12] = 62 g ai/ha, postemergence, 0 is no effect, 100 is complete control, 13 to 15 days
[13] = Postemergence, 125 g ai/ha, visual rating after 13 to 15 days, scale 0 (no effect) to 100 (complete control)
[14] = Postemergence, 250 g ai/ha, scale 0 to 100 (0 no effect, 100 complete control)
[15] = 250 g ai/ha, flooded paddy test, visual rating on 0 to 100 scale (0 no effect, 100 complete control) after 13 to 15 days
[16] = 62 g ai/ha, scale of 0 to 100 where 0 is no effect and 100 is complete control
[17] = 125 g ai/ha, scale 0 to 100, 0 is no effect, 100 is complete control
[18] = Flood, 31 g ai/ha, scale 0 to 100 (0 no effect, 100 complete control)

O=C1CCCC(O)=C1C(=O)c1cnc(C2CCCC2)n(-c2ccccc2)c1=O [Compound 92]
Plant response rating, Bermudagrass [1, 11]: 20 | Bermudagrass plant response rating (0 to 100 scale) [1, 12]: 80 | Plant response rating, Bermudagrass [1, 13]: 85 | Plant response rating, Bermudagrass [1, 14]: 85 | Plant response rating, Morningglory [2, 11]: 80 | Morningglory plant response rating (0 to 100 scale) [2, 12]: 95 | Plant response rating, Morningglory [2, 14]: 100 | Plant response rating, Canarygrass [3, 11]: 0 | Canarygrass plant response rating (0 to 100 scale) [3, 12]: 0 | Plant response rating, Canarygrass [3, 13]: 0 | Plant response rating, Canarygrass [3, 14]: 0 | Plant response rating, Chickweed [4, 11]: 90 | Chickweed plant response rating (0 to 100 scale) [4, 12]: 95 | Plant response rating, Chickweed [4, 13]: 98 | Plant response rating, Chickweed [4, 14]: 100 | Plant response rating, Windgrass [5, 11]: 0 | Windgrass plant response rating (0 to 100 scale) [5, 12]: 50 | Plant response rating, Windgrass [5, 14]: 90 | Plant response rating, Barley [6, 11]: 0 | Barley plant response rating (0 to 100 scale) [6, 12]: 0 | Plant response rating, Barley [6, 13]: 0 | Plant response rating, Barley [6, 14]: 0 | Plant response rating, Flood, Barnyardgrass [7, 15]: 45 | Plant response rating, Barnyardgrass [7, 16]: 0 | Plant response rating, Barnyardgrass [7, 17]: 20 | Barnyardgrass plant response rating [7, 18]: 0 | Plant response rating, Flood, Ducksalad [8, 15]: 85 | Plant response rating, Ducksalad [8, 16]: 30 | Plant response rating, Ducksalad [8, 17]: 70 | Ducksalad plant response rating [8, 18]: 20 | Plant response rating, Flood, Rice [9, 15]: 40 | Plant response rating, Rice [9, 16]: 0 | Plant response rating, Rice [9, 17]: 25 | Rice plant response rating [9, 18]: 0 | Plant response rating, Flood, Sedge, Umbrella [10, 15]: 85 | Plant response rating, Sedge, Umbrella [10, 16]: 65 | Plant response rating, Sedge, Umbrella [10, 17]: 70 | Sedge, Umbrella plant response rating [10, 18]: 65
